Reference: patent US20220265629A1, “TREATMENT OF SYSTOLIC DYSFUNCTION AND HEART FAILURE WITH REDUCED EJECTION FRACTION WITH THE COMPOUND (R)-4-(1-((3-(DIFLUOROMETHYL)-1-METHYL-1H-PYRAZOL-4-YL)SULFONYL)-1-FLUOROETHYL)-N-(ISOXAZOL-3-YL)PIPERIDINE-1-CARBOXAMIDE” (MyoKardia, Inc., priority 2019, published 2022)
Read-outs that look alike come from different tables or passages of the source.

Assay: Single ascending oral dose study in healthy volunteers: plasma pharmacokinetics
Type: in vivo, human
Conditions: human, plasma, oral; for concentration at 6 h: 6 Hours Postdose; for concentration at 12 h: 12 Hours Postdose; for concentration at 24 h: 24 Hours Postdose; for concentration at 48 h: 48 Hours Postdose; for concentration at 72 h: 72 Hours Postdose
Excerpt: This example describes the first-in-human study of Compound I. Based on its mechanism of action, Compound I may offer a targeted therapy for patients with DCM caused by genetic or nongenetic mechanisms. The study was a randomized, double-blind, placebo-controlled, sequential group, single-ascending (oral) close study in healthy subjects aged 18-55 years. Eight dosing cohorts, each comprising eight healthy subjects, were enrolled. Within each cohort, subjects were randomized 6:2 to Compound I:placebo.
Subjects were resident at the clinical site for up to 5 days and 4 nights, from Day −1 (the day before dosing) to Day 4, and received a single dose of Compound I or placebo on Day 1. ECG telemetry was initiated 1 hour preclose and continued through 48 hours postclose (Day 3). Any subject with a preclose resting HR≥80 beats per minute was considered ineligible and not treated. […] Subjects returned for a safety follow-up visit 7 days (±1 day) after dosing.
All randomized study subjects received either Compound I or matching placebo as a single oral dose after a fasting period of at least 6 hours. Compound I drug substance is a crystalline, free-base, synthetic molecule with a molecular weight of 435.4 g/mol.
Compound I was provided as a powder for oral suspension. Placebo was provided as calcium carbonate powder. Both treatments were closed orally as a suspension. The suspension was made using Ora-Plus® suspending vehicle (Perrigo) and a cherry syrup flavoring vehicle (Humco), mixed 50% to 50%. The suspension was followed by approximately 100 mL water. The suspension was made up within 14 days from the time in which it was closed which was consistent with the stability data on the suspension. The suspension was made up so the volume administered to the subjects who received Compound I was the same at 20 mL.
Each subject received a close according to the cohort in which they were enrolled. Cohorts were enrolled sequentially, with each cohort receiving an escalated dose of Compound I. The closes administered were 3 mg, 10 mg, 25 mg, 50 mg, 100 mg, 175 mg, 350 mg, and 525 mg, respectively.
The concentrations of Compound I in human plasma and urine were quantitated by high performance liquid chromatography with tandem mass spectrometric detection (LC MS/MS) (Biological sample analysis study report Alturas AD17-726). Plasma samples were extracted by protein precipitation with acetonitrile containing internal standard MYK-5654. The calibration curves were linear over concentration range of 0.500 to 1000 ng/mL with a lower limit of quantification (LLOQ) of 0.500 ng/mL.
The PK Population included all subjects who received Compound I. Blood samples were collected for PK assessments. The actual timing of the samples may have been modified and/or up to an additional 2 samples may have been requested by the SRC after review of the data from previous cohorts. It was important that PK sampling occurred as closely as possible to the scheduled time (±10%). Both blood and urine samples were used for PK assessments.
In addition, for subjects who received placebo, a single plasma sample near the predicted tmax of Compound I was evaluated to confirm the lack of circulating Compound I. Plasma concentration data for Compound I was summarized using descriptive statistics, including mean, standard deviation (SD), median, minimum, and maximum values, and percent coefficient of variation. Other PK parameters included (but were not limited to) Cmax, tmax, AUC, t1/2, and MRT. Additionally, the apparent terminal-phase terminal half-life was calculated. The close proportionality of AUC and Cmax was explored.

[1] = 100 mg, 100 mg, read-out: Plasma concentration, Geometric Mean
[2] = 100 mg, 100 mg, read-out: Plasma concentration, Mean
[3] = 100 mg, 100 mg, read-out: Plasma concentration, Median
[4] = 175 mg, 175 mg, read-out: Plasma concentration, Geometric Mean
[5] = 175 mg, 175 mg, read-out: Plasma concentration, Mean
[6] = 175 mg, 175 mg, read-out: Plasma concentration, Median

Which results are given for Cn1cc(S(=O)(=O)[C@@](C)(F)C2CCN(C(=O)Nc3ccon3)CC2)c(C(F)F)n1 [Compound I, (R)-4-(1-((3-(difluoromethyl)-1-methyl-1H-pyrazol-4-yl)sulfonyl)-1-fluoroethyl)-N-(isoxazol-3-yl)piperidine-1-carboxamide]?
Vd/F (50 mg, read-out: Vz/F, Mean): 87.9 L; Vd/F (50 mg, read-out: Vz/F, Median): 90.6 L; concentration at 6 h [1]: 934 ng/mL; concentration at 6 h [2]: 947 ng/mL; concentration at 6 h [3]: 935 ng/mL; concentration at 12 h [1]: 661 ng/mL; concentration at 12 h [2]: 674 ng/mL; concentration at 12 h [3]: 637 ng/mL; concentration at 24 h [1]: 374 ng/mL; concentration at 24 h [2]: 384 ng/mL; concentration at 24 h [3]: 372 ng/mL; concentration at 48 h [1]: 71 ng/mL; concentration at 48 h [2]: 91.1 ng/mL; concentration at 48 h [3]: 104 ng/mL; concentration at 72 h [2]: 23.2 ng/mL; concentration at 72 h [3]: 24.2 ng/mL; AUC(0-t) (100 mg, read-out: AUC0-24, Geometric Mean): 15200 ng·h/mL; AUC(0-t) (100 mg, read-out: AUC0-24, Mean): 15400 ng·h/mL; AUC(0-t) (100 mg, read-out: AUC0-24, Median): 14900 ng·h/mL; AUC(0-t) (100 mg, read-out: AUC0-48, Geometric Mean): 21100 ng·h/mL; AUC(0-t) (100 mg, read-out: AUC0-48, Mean): 21400 ng·h/mL; AUC(0-t) (100 mg, read-out: AUC0-48, Median): 21600 ng·h/mL; AUC(0-t) (100 mg, read-out: AUC0-last, Geometric Mean): 21700 ng·h/mL; AUC(0-t) (100 mg, read-out: AUC0-last, Mean): 22700 ng·h/mL; AUC(0-t) (100 mg, read-out: AUC0-last, Median): 22400 ng·h/mL; AUC(0-inf) (100 mg, read-out: AUC0-∞, Geometric Mean): 21300 ng·h/mL; AUC(0-inf) (100 mg, read-out: AUC0-∞, Mean): 21700 ng·h/mL; AUC(0-inf) (100 mg, read-out: AUC0-∞, Median): 18700 ng·h/mL; Cmax (100 mg, read-out: Cmax, Geometric Mean): 1000 ng/mL; Cmax (100 mg, read-out: Cmax, Mean): 1020 ng/mL; Cmax (100 mg, read-out: Cmax, Median): 983 ng/mL; half-life (100 mg, read-out: Half-Life Lambda Z, Geometric Mean (converted)): 11.1 h; half-life (100 mg, read-out: Half-Life Lambda Z, Mean (converted)): 11.7 h; half-life (100 mg, read-out: Half-Life Lambda Z, Median (converted)): 12.5 h; MRT (100 mg, read-out: Mean Residence Time, Geometric Mean): 19.1 h; MRT (100 mg, read-out: Mean Residence Time, Mean): 19.5 h; MRT (100 mg, read-out: Mean Residence Time, Median): 20.4 h; Tmax (100 mg, read-out: Tmax, Geometric Mean): 4.42 h; Tmax (100 mg, read-out: Tmax, Mean): 4.5 h; Tmax (100 mg, read-out: Tmax, Median): 5 h; Vd/F (100 mg, read-out: Vz/F, Geometric Mean): 74.9 L; Vd/F (100 mg, read-out: Vz/F, Mean): 77.9 L; Vd/F (100 mg, read-out: Vz/F, Median): 82.1 L; concentration at 6 h [4]: 1260 ng/mL; concentration at 6 h [5]: 1270 ng/mL; concentration at 6 h [6]: 1250 ng/mL; concentration at 12 h [4]: 1040 ng/mL; concentration at 12 h [5]: 1050 ng/mL; concentration at 12 h [6]: 1040 ng/mL; concentration at 24 h [4]: 650 ng/mL; concentration at 24 h [5]: 664 ng/mL; concentration at 24 h [6]: 690 ng/mL; concentration at 48 h [4]: 203 ng/mL; concentration at 48 h [5]: 212 ng/mL; concentration at 48 h [6]: 224 ng/mL; concentration at 72 h [4]: 64 ng/mL; concentration at 72 h [5]: 71.3 ng/mL; concentration at 72 h [6]: 73.2 ng/mL; AUC(0-t) (175 mg, read-out: AUC0-24, Geometric Mean): 22000 ng·h/mL; AUC(0-t) (175 mg, read-out: AUC0-24, Mean): 22300 ng·h/mL; AUC(0-t) (175 mg, read-out: AUC0-24, Median): 21700 ng·h/mL; AUC(0-t) (175 mg, read-out: AUC0-48, Geometric Mean): 32300 ng·h/mL; AUC(0-t) (175 mg, read-out: AUC0-48, Mean): 32800 ng·h/mL; AUC(0-t) (175 mg, read-out: AUC0-48, Median): 32700 ng·h/mL; AUC(0-t) (175 mg, read-out: AUC0-last, Geometric Mean): 38200 ng·h/mL; AUC(0-t) (175 mg, read-out: AUC0-last, Mean): 39000 ng·h/mL; AUC(0-t) (175 mg, read-out: AUC0-last, Median): 39600 ng·h/mL; AUC(0-inf) (175 mg, read-out: AUC0-∞, Geometric Mean): 38300 ng·h/mL; AUC(0-inf) (175 mg, read-out: AUC0-∞, Mean): 39100 ng·h/mL; AUC(0-inf) (175 mg, read-out: AUC0-∞, Median): 39700 ng·h/mL; Cmax (175 mg, read-out: Cmax, Geometric Mean): 1300 ng/mL; Cmax (175 mg, read-out: Cmax, Mean): 1320 ng/mL; Cmax (175 mg, read-out: Cmax, Median): 1300 ng/mL; half-life (175 mg, read-out: Half-Life Lambda Z, Geometric Mean (converted)): 15.8 h; half-life (175 mg, read-out: Half-Life Lambda Z, Mean (converted)): 15.8 h; half-life (175 mg, read-out: Half-Life Lambda Z, Median (converted)): 16.4 h; MRT (175 mg, read-out: Mean Residence Time, Geometric Mean): 24.4 h; MRT (175 mg, read-out: Mean Residence Time, Mean): 24.6 h; MRT (175 mg, read-out: Mean Residence Time, Median): 24.4 h; Tmax (175 mg, read-out: Tmax, Geometric Mean): 5.07 h; Tmax (175 mg, read-out: Tmax, Mean): 5.11 h; Tmax (175 mg, read-out: Tmax, Median): 5 h; Vd/F (175 mg, read-out: Vz/F, Geometric Mean): 104 L; Vd/F (175 mg, read-out: Vz/F, Mean): 106 L; Vd/F (175 mg, read-out: Vz/F, Median): 101 L; AUC(0-t) (350 mg + 525 mg, read-out: AUC0-24, Geometric Mean): 40900 ng·h/mL; AUC(0-t) (350 mg + 525 mg, read-out: AUC0-24, Mean): 42100 ng·h/mL; AUC(0-t) (350 mg + 525 mg, read-out: AUC0-24, Median): 38500 ng·h/mL; AUC(0-t) (350 mg + 525 mg, read-out: AUC0-48, Geometric Mean): 60500 ng·h/mL; AUC(0-t) (350 mg + 525 mg, read-out: AUC0-48, Mean): 62400 ng·h/mL; AUC(0-t) (350 mg + 525 mg, read-out: AUC0-48, Median): 57400 ng·h/mL; AUC(0-t) (350 mg + 525 mg, read-out: AUC0-last, Geometric Mean): 70600 ng·h/mL; AUC(0-t) (350 mg + 525 mg, read-out: AUC0-last, Mean): 74000 ng·h/mL; AUC(0-t) (350 mg + 525 mg, read-out: AUC0-last, Median): 68600 ng·h/mL; AUC(0-inf) (350 mg + 525 mg, read-out: AUC0-∞, Geometric Mean): 71000 ng·h/mL; AUC(0-inf) (350 mg + 525 mg, read-out: AUC0-∞, Mean): 74400 ng·h/mL; AUC(0-inf) (350 mg + 525 mg, read-out: AUC0-∞, Median): 68800 ng·h/mL; Cmax (350 mg + 525 mg, read-out: Cmax, Geometric Mean): 2530 ng/mL; Cmax (350 mg + 525 mg, read-out: Cmax, Mean): 2580 ng/mL; Cmax (350 mg + 525 mg, read-out: Cmax, Median): 2500 ng/mL; half-life (350 mg + 525 mg, read-out: Half-Life Lambda Z, Geometric Mean (converted)): 14.5 h; half-life (350 mg + 525 mg, read-out: Half-Life Lambda Z, Mean (converted)): ~15 h; half-life (350 mg + 525 mg, read-out: Half-Life Lambda Z, Median (converted)): 14.5 h; MRT (350 mg + 525 mg, read-out: Mean Residence Time, Geometric Mean): 23.9 h; MRT (350 mg + 525 mg, read-out: Mean Residence Time, Mean): 24.3 h; MRT (350 mg + 525 mg, read-out: Mean Residence Time, Median): 23.5 h; Tmax (350 mg + 525 mg, read-out: Tmax, Geometric Mean): 4.89 h; Tmax (350 mg + 525 mg, read-out: Tmax, Mean): 5 h; Vd/F (350 mg + 525 mg, read-out: Vz/F, Geometric Mean): 126 L; Vd/F (350 mg + 525 mg, read-out: Vz/F, Mean): 132 L; Vd/F (350 mg + 525 mg, read-out: Vz/F, Median): 116 L; concentration at 6 h (350 mg, 350 mg, read-out: Plasma concentration, Geometric Mean): 2620 ng/mL
